Assay results reported in patent publication US20110201608A1 (BOEHRINGER INGELHEIM INTERNATIONAL GMBH, priority 2008, published 2011).

Target: T1, Recombinant human Syk (GST-Syk kinase fusion protein) (Homo sapiens, UniProt P43405)
T1 construct: made in house
Test: Syk Kinase Test (Kinase Glo Luminescence Kinase test)
Type: biochemical
Details: 1 μM test substance; negative control (no kinase) = 100% inhibition, positive control (no test substance) = 0% inhibition
Method: The catalytic activity of the GST-Syk kinase fusion protein was determined using the Kinase Glo® Luminescence Kinase test of Messrs Promega. In this homogeneous test the amount of ATP remaining after the kinase reaction has been carried out is quantified by a luciferin-luciferase reaction using luminescence. The luminescence signal obtained correlates with the amount of ATP still present and thus correlates inversely with the activity of the protein kinase.
The test substances were dissolved in 100% DMSO at a concentration of 10 mM and diluted in DMSO to a concentration of 1 mM. […] GST-Syk was diluted to 6.0 nM in the test buffer and 10 μl of this dilution were used in the kinase test (final concentration of Syk=4 nM in a total volume of 15 μl).
Positive controls are the reaction mixtures that contain no test substance; negative controls are reaction mixtures that contain no kinase.
After 60 minutes, 10 μl Kinase-Glo® solution (Promega, Cat. # V6712) (heated to ambient temperature) are added to each well and incubation is continued for a further 15 minutes at ambient temperature.
The output file of the “MicroBeta TRILUX” is a text file that contains the well number and measurements obtained. […] Then from this the % inherent value for the measurement of each substance concentration was calculated using an “MS-Excel-VB macro”. […] The IC50 values were calculated from the % inhibition values using “GraphPadPrism” software (Version 5) (GraphPad Software Inc.).

Compound | % INHB SYK at 1 μM
c1cnc2cc(-c3ccc(N4CCOCC4)cc3)nc(Nc3ccc4cn[nH]c4c3)c2c1 [Example 1, 5-[(1H-indazol-6-yl)amino]-7-(4-morpholinophenyl)-[1,6]naphthyridine] | 82.0%
NC(=O)c1cccnc1Nc1nc(-c2ccc(N3CCOCC3)cc2)cc2ncccc12 [Example 2, 2-[7-(4-morpholin-4-yl-phenyl)-[1,6]naphthyridin-5-ylamino]-nicotinamide] | 72.6%
CNc1nc(-c2ccc(N3CCOCC3)cc2)cc2ncccc12 [Example 3] | 101.8%
OCCCCOc1nc(-c2ccc(N3CCOCC3)cc2)cc2ncccc12 [Example 4, 4-[7-(4-morpholinophenyl)-[1,6]naphthyridin-5-yloxy]-butan-1-ol] | 94.4%
CN[C@H]1CC[C@@H](Nc2nc(-c3ccc(N4CCOCC4)cc3)cc3ncccc23)CC1 [Example 9, N-methyl-N′-[7-(4-morpholin-4-yl-phenyl)-[1,6]naphthyridin-5-yl]-cyclohexane-1,4-diamine] | 86.7%
COc1cc(-c2cc3ncccc3c(NC[C@@H]3CCNC3)n2)ccc1N1CCOCC1 [Example 10] | 98.6%
O[C@H]1CC[C@@H](Nc2nc(-c3ccc(N4CCOCC4)cc3)cc3ncccc23)CC1 [Example 62, 4-[7-(4-morpholin-4-yl-phenyl)-[1,6]naphthyridin-5-ylamino]-cyclohexanol] | 76.8%
c1cnc2cc(-c3ccc(N4CCOCC4)cc3)nc(NCC3CNCCO3)c2c1 (stereo not shown) [Example 63] | 85.4%
Cc1cc(-c2cc3ncccc3c(OC[C@H]3CCCNC3)n2)ccc1N1CCOCC1 [Example 66, (S)-4-(2-methyl-4-(5-(piperidine-3-ylmethoxy)-[1,6]naphthyridin-7-yl)phenyl)morpholine] | 102.8%
CCOc1nc(-c2ccc(N3CCOCC3)cc2)cc2ncccc12 [Example 79, 5-Ethoxy-7-(4-morpholin-4-yl-phenyl)-[1,6]naphthyridine] | 82.9%
OCC#Cc1nc(-c2ccc(N3CCOCC3)cc2)cc2ncccc12 [Example 82, 3-[7-(4-morpholin-4-yl-phenyl)-[1,6]naphthyridin-5-yl]-prop-2-yn-1-ol] | 87.1%
CCNC(=O)NC1CN(c2nc(-c3ccc(N4CCN(C)CC4)cc3)cc3ncccc23)C1 [Example 92, 1-ethyl-3-(1-{7-[4-(4-methyl-piperazin-1-yl)-phenyl]-[1,6]naphthyridin-5-yl}-azetidin-3-yl)-urea] | 77.3%
CCNC(=O)N1CCCC1CNc1nc(-c2ccc(N3CCN(C)CC3)cc2)cc2ncccc12 (stereo not shown) [Example 93, 2-({7-[4-(4-methyl-piperazin-1-yl)-phenyl]-[1,6]naphthyridin-5-ylamino}-methyl)-pyrrolidin-1-carboxylic acid ethylamide] | 91.5%
NC(=O)N1CCN(c2nc(-c3ccc(N4CCOCC4)cc3)cc3ncccc23)CC1 [Example 98, 4-[7-(4-morpholin-4-yl-phenyl)-[1,6]naphthyridin-5-yl]-piperazine-1-carboxylic acid amide] | 86.8%
NC(=O)C1CCN(c2nc(-c3ccc(N4CCOCC4)cc3)cc3ncccc23)C1 (stereo not shown) [Example 107, 1-[7-(4-morpholin-4-yl-phenyl)-[1,6]naphthyridin-5-yl]-pyrrolidine-3-carboxylic acid amide] | 95.3%
CC(=O)N[C@H]1CC[C@@H](Nc2nc(-c3ccc(N4CCOCC4)cc3)cc3ncccc23)CC1 [Example 113, N-{4-[7-(4-morpholin-4-yl-phenyl)-[1,6]naphthyridin-5-ylamino]-cyclohexyl}-acetamide] | 94.7%
c1ccc(-c2nc(-c3ccc(N4CCOCC4)cc3)cc3ncccc23)cc1 [Example 132, (4-(5-phenyl-1,6-naphthyridin-7-yl)phenyl)morpholine] | 55.2%
CCc1nc(-c2ccc(N3CCOCC3)cc2)cc2ncccc12 [Example 140, (4-(5-ethyl-[1,6]naphthyridin-7-yl)phenyl)morpholine] | 43.3%
C#Cc1nc(-c2ccc(N3CCOCC3)cc2)cc2ncccc12 [Example 142, (4-(5-ethynyl-[1,6]naphthyridin-7-yl)phenyl)morpholine] | 70.3%
